# According to PMC12372887, “Mechanism and cellular actions of the potent AMPK inhibitor BAY-3827” (Science Advances, 2025):
# Target: T1, ULK1 (Homo sapiens, UniProt O75385)
# T1 sequence (O75385 1-1050): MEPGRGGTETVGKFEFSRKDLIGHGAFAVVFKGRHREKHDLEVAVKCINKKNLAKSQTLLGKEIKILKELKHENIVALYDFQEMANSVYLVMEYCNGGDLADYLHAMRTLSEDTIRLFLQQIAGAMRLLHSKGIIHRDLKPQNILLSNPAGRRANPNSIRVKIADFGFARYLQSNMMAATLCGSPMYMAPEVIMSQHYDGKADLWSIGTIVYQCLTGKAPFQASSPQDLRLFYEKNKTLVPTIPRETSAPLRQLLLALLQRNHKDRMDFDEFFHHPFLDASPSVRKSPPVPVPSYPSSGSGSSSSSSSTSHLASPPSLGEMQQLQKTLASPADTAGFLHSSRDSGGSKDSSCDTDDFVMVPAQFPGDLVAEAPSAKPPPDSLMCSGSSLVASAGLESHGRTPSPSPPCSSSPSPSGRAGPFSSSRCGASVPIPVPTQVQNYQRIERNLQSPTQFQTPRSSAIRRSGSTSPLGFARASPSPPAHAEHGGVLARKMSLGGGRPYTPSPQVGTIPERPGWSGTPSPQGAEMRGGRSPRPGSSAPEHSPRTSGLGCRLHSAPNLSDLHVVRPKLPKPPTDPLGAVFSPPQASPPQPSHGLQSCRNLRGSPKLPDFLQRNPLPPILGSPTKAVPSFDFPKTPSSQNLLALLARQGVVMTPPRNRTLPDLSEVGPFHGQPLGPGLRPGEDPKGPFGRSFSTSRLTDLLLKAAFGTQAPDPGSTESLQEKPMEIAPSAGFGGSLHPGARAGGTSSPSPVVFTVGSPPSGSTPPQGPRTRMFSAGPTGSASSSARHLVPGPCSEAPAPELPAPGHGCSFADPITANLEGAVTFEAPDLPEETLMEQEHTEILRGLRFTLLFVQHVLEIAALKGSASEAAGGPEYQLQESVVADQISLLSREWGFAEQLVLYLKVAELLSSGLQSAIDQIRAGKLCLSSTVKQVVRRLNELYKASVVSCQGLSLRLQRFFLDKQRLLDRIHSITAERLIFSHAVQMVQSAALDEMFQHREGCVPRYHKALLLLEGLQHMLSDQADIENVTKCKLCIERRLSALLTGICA
# Experiment: Cell-free ULK1 kinase assay (S108tide)
# Type: biochemical
# Details: increasing concentrations, 0 to 1 μM
# Method: Heterotrimeric human AMPK FLAG- α1β1γ1, FLAG- α2β1γ1, and FLAG- α2β2γ1, as well as human FLAG-CaMKK2 and FLAG-ULK1, were produced in mammalian HEK293 cells as described ([66], [67]). For AMPK expression, the cells were triply transfected at 60% confluency using FuGene HD (Roche Applied Science) and 1 μg of pcDNA3 plasmid expression constructs for AMPK Flag-α1, β1-Myc, β2-Myc, and HA-γ1. For CaMKK2 expression, the cells were transfected with 1 μg of pcDNA3 Flag-CaMKK2 plasmid. For ULK1 expression, the cells were transfected with […] of pcDNA3 FLAG-ULK1 plasmid. After 48 hours, the transfected cells were harvested by rinsing with ice-cold PBS, followed by rapid lysis using 500 μl of lysis buffer. AMPK, CaMKK2, and ULK1 kinase activities were determined by phosphorylation of synthetic peptide substrates: SAMS (HMRSAMSGLHLVKRR), CaMKKtide ([…]), and S108tide. (KLPLTRSHNNFVARRR), respectively. Briefly, recombinant AMPK, CaMKK2, or ULK1 were immunoprecipitated from 10 μg of transfected cultured cell lysate using 10 μl of anti-FLAG M2 agarose beads [50% (v/v)] […] Radioactivity was quantified by liquid scintillation counting. […]
row,SMILES,inhibitory effect on kinase activity
1,"CC1=C(C#N)C(c2ccc3c(c2)c(NC(=O)c2ccccc2C)nn3C)C(C#N)=C(C)N1 [BAY-974, N-[5-(3,5-dicyano-2,6-dimethyl-1,4-dihydropyridin-4-yl)-1-methylindazol-3-yl]-2-methylbenzamide]",no inhibitory effect
2,"CCc1ccccc1C(=O)Nc1n[nH]c2c(C)c(F)c(C3C(C#N)=C(C)N(C)C(C)=C3C#N)cc12 [BAY-3827, N-[5-(3,5-dicyano-1,2,6-trimethyl-4H-pyridin-4-yl)-6-fluoro-7-methyl-1H-indazol-3-yl]-2-ethylbenzamide]",no inhibitory effect
